# Patent publication US20250215039A1, “NUCLEOSIDES FOR TREATING CANCER” (PRIMEFOUR THERAPEUTICS, INC., priority 2022, published 2025)
# Read-outs that look alike come from different tables or passages of the source.
# Test system: cancer cell lines
# Test: Cancer cell proliferation activity (CellTiterGlo, 72 h)
# Type: cell-based
# Details: 72 h, 72 h, read-out: IC50
# Procedure: Dose response relationships on cell proliferation was assessed for representative Compounds of the Disclosure on cancer cell lines. Briefly, compound treatment of cells started one day after seeding with a final DMSO concentration of 0.1%, and was performed by nanodrop-dispensing using a Tecan Dispenser. 0.1% DMSO (solvent) and Staurosporine (10 μM) served as high control (100% viability) and low control (0% viability), respectively.
# Cells were cultured in the appropriate media. For the assays, cells were seeded in white cell culture-treated flat and clear bottom multiwell plates and incubated at 37° C. overnight before compound was added. After incubation for 72 h at 37° C. at 5% or 10% CO2 dependent on the medium, cell plates were equilibrated to room temperature for one hour, CellTiterGlo reagent (Promega) was added and luminescence was measured approximately an hour later using a luminometer.
# Raw data were converted into percent cell viability relative to the high and low control, which were set to 100% and 0%, respectively.
# The IC50 values are summarized in Tables 9A-1, Table 10A, and Table 10B.
structure (smiles),measurement,setting,value
"C[C@]1(CO)O[C@@H](n2cc(F)c(=O)[nH]c2=O)C[C@@H]1O [Cpd. No. 105, 5-fluoro-1-((2R,4S,5R)-4-hydroxy-5-(hydroxymethyl)-5-methyltetrahydrofuran-2-yl)pyrimidine-2,4(1H,3H)-dione]",IC50,5637 cell line (bladder),740 nM
same,IC50,CLS439 cell line (bladder),> 50000 nM
same,IC50,HS729 cell line (muscle),1370 nM
same,IC50,HSS78T cell line,> 50000 nM
same,IC50,JAR cell line (placenta),5830 nM
same,IC50,SKMELS cell line,5100 nM
same,IC50,"Homo sapiens, 22Rv1, 72 h, 22RV1 cell line (prostate)",310 nM
same,IC50,"Homo sapiens, 786-0, 72 h, 786O cell line (kidney)",2510 nM
same,IC50,"Homo sapiens, A204, 72 h, A204 cell line (muscle)",2550 nM
same,IC50,"Homo sapiens, A549, 72 h, A549 cell line",530 nM
same,IC50,"Homo sapiens, A673, 72 h, A673 cell line (bone)",2810 nM
same,IC50,"Homo sapiens, A2780, 72 h, A2780 cell line (ovary)",3500 nM
same,IC50,"Homo sapiens, A-375, 72 h, A375 cell line (skin)",3510 nM
same,IC50,"Homo sapiens, A-431, 72 h, A431 cell line (skin)",50 nM
same,IC50,"Homo sapiens, ACHN, ACHN cell line (kidney)",270 nM
same,IC50,"Homo sapiens, ASPC1, 72 h, ASPC1 cell line (pancreas)",160 nM
same,IC50,"Homo sapiens, BT-20, 72 h, BT20 cell line (breast)",> 50000 nM
same,IC50,"Homo sapiens, BXPC-3, 72 h, BXPC3 cell line (pancreas)",20 nM
same,IC50,"Homo sapiens, C-33-A, C33A cell line (cervical)",1580 nM
same,IC50,"Homo sapiens, CAKI-1, 72 h, CAKI1 cell line (kidney)",> 50000 nM
same,IC50,"Homo sapiens, COLO 205, 72 h, COLO205 cell line (colon)",310 nM
same,IC50,"Homo sapiens, COLO-678, 72 h, COLO678 cell line (colon)",> 50000 nM
same,IC50,"Homo sapiens, Ca-Ski, CASKI cell line (cervical)",2470 nM
same,IC50,"Homo sapiens, Caco-2, 72 h, CACO2 cell line (colon)",> 50000 nM
same,IC50,"Homo sapiens, Calu-6, 72 h, CALU6 cell line (lung)",1710 nM
same,IC50,"Homo sapiens, DLD-1, 72 h, DLD1 cell line (colon)",3740 nM
same,IC50,"Homo sapiens, DU-145, 72 h, DU145 cell line (prostate)",1000 nM
same,IC50,"Homo sapiens, EFO-21, 72 h, EFO21 cell line (ovary)",2780 nM
same,IC50,"Homo sapiens, EJ-28, 72 h, EJ28 cell line (bladder)",1720 nM
same,IC50,"Homo sapiens, Granta-519, 72 h, GRANTA-519 cell line (hematological)",650 nM
same,IC50,"Homo sapiens, HCT-15, 72 h, HCT15 cell line (colon)",2950 nM
same,IC50,"Homo sapiens, HCT-116, 72 h, HCT116 cell line (colon)",5530 nM
same,IC50,"Homo sapiens, HEK293, 72 h, HEK293 cell line (kidney)",4350 nM
same,IC50,"Homo sapiens, HL-60, 72 h, HL-60 cell line (hematological)",3870 nM
same,IC50,"Homo sapiens, HT-29, 72 h, HT29 cell line (colon)",530 nM
same,IC50,"Homo sapiens, HT-1080, 72 h, HT1080 cell line (connective tissue)",2690 nM
same,IC50,"Homo sapiens, HeLa, HELA cell line (cervical)",> 50000 nM
same,IC50,"Homo sapiens, HepG2, 72 h, HEPG2 cell line (liver)",770 nM
same,IC50,"Homo sapiens, IGROV-1, 72 h, IGROV1 cell line (ovary)",2990 nM
same,IC50,"Homo sapiens, IMR-90, 72 h, IMR.90 cell line",> 50000 nM
same,IC50,"Homo sapiens, J82, 72 h, J82 cell line (bladder)",1000 nM
same,IC50,"Homo sapiens, JEG-3, 72 h, JEG3 cell line (placenta)",1170 nM
same,IC50,"Homo sapiens, JIMT-1, 72 h, JIMT1 cell line (breast)",7280 nM
same,IC50,"Homo sapiens, K562, 72 h, K-562 cell line (hematological)",5830 nM
same,IC50,"Homo sapiens, Kasumi 1, 72 h, KASUMI-1 cell line (hematological)",> 50000 nM
same,IC50,"Homo sapiens, L-363, 72 h, L-363 cell line (hematological)",2800 nM
same,IC50,"Homo sapiens, LoVo, LOVO cell line (colon)",510 nM
same,IC50,"Homo sapiens, MCF7, 72 h, MCF7 cell line (breast)",170 nM
same,IC50,"Homo sapiens, MDA-MB-231, 72 h, MDAMB231 cell line (breast)",> 50000 nM
same,IC50,"Homo sapiens, MDA-MB-435, 72 h, MDAMB435 cell line (skin)",2440 nM
same,IC50,"Homo sapiens, MDA-MB-436, 72 h, MDAMB436 cell line (breast)",420 nM
same,IC50,"Homo sapiens, MDA-MB-468, 72 h, MDAMB468 cell line (breast)",2880 nM
same,IC50,"Homo sapiens, MG-63, 72 h, MG63 cell line (bone)",1810 nM
same,IC50,"Homo sapiens, MHH-ES-1, 72 h, MHHES1 cell line (bone)",2290 nM
same,IC50,"Homo sapiens, MIA PaCa-2, 72 h, MIAPACA2 cell line (pancreas)",2430 nM
same,IC50,"Homo sapiens, MINO, MINO cell line (hematological)",580 nM
same,IC50,"Homo sapiens, MV4-11, 72 h, MV4-11 cell line (hematological)",180 nM
same,IC50,"Homo sapiens, NCI-H23, 72 h, NCI-H23 cell line (lung)",1410 nM
same,IC50,"Homo sapiens, NCI-H82, 72 h, NCIH82 cell line (lung)",4600 nM
same,IC50,"Homo sapiens, NCI-H292, 72 h, NCIH292 cell line (lung)",> 50000 nM
same,IC50,"Homo sapiens, NCI-H460, 72 h, NCIH460 cell line (lung)",600 nM
same,IC50,"Homo sapiens, OVCAR-3, 72 h, OVCAR3 cell line (ovary)",5890 nM
same,IC50,"Homo sapiens, OVCAR-4, 72 h, OVCAR4 cell line (ovary)",2790 nM
same,IC50,"Homo sapiens, PANC-1, 72 h, PANC1 cell line (pancreas)",4990 nM
same,IC50,"Homo sapiens, PC-3, 72 h, PC3 cell line (prostate)",8200 nM
same,IC50,"Homo sapiens, PLC-PRF-5, 72 h, PLCPRF5 cell line (liver)",1720 nM
same,IC50,"Homo sapiens, Panc1005, 72 h, PANC1005 cell line (pancreas)",> 50000 nM
same,IC50,"Homo sapiens, RD, RD cell line (muscle)",3490 nM
same,IC50,"Homo sapiens, Ramos, RAMOS cell line (hematological)",3140 nM
same,IC50,"Homo sapiens, SAOS-2, 72 h, SAOS2 cell line (bone)",1140 nM
same,IC50,"Homo sapiens, SF-268, 72 h, SF268 cell line (brain)",1070 nM
same,IC50,"Homo sapiens, SF-295, 72 h, SF295 cell line (brain)",1200 nM
same,IC50,"Homo sapiens, SK-BR-3, 72 h, SKBR3 cell line (breast)",40 nM
same,IC50,"Homo sapiens, SK-HEP1, 72 h, SKHEP1 cell line (liver)",1360 nM
same,IC50,"Homo sapiens, SK-LMS-1, 72 h, SKLMS1 cell line (uterus)",1140 nM
same,IC50,"Homo sapiens, SK-MEL-28, 72 h, SKMEL28 cell line (skin)",> 50000 nM
same,IC50,"Homo sapiens, SK-N-AS, SKNAS cell line (brain)",> 50000 nM
same,IC50,"Homo sapiens, SK-N-SH, SKNSH cell line (brain)",> 50000 nM
same,IC50,"Homo sapiens, SK-OV-3, 72 h, SKOV3 cell line (ovary)",810 nM
same,IC50,"Homo sapiens, SNB-75, 72 h, SNB75 cell line (brain)",> 50000 nM
same,IC50,"Homo sapiens, SU-DHL10, 72 h, SU-DHL-10 cell line (hematological)",4950 nM
same,IC50,"Homo sapiens, SU-DHL-6, 72 h, SU-DHL-6 cell line (hematological)",5490 nM
same,IC50,"Homo sapiens, SW-620, 72 h, SW620 cell line (colon)",390 nM
same,IC50,"Homo sapiens, T-24, 72 h, T24 cell line (bladder)",2840 nM
same,IC50,"Homo sapiens, TE-671, 72 h, TE671 cell line (muscle)",5920 nM
same,IC50,"Homo sapiens, THP-1, 72 h, THP-1 cell line (hematological)",1690 nM
same,IC50,"Homo sapiens, U2OS, U2OS cell line (bone)",> 50000 nM
same,IC50,"Homo sapiens, U-87 MG, U87MG cell line (brain)",> 50000 nM
same,IC50,"Homo sapiens, UMUC3, 72 h, UMUC3 cell line (bladder)",2450 nM
same,IC50,"Homo sapiens, UO-31, 72 h, UO31 cell line (kidney)",> 50000 nM
same,IC50,"Homo sapiens, WSU-NHL, WSU-NHL cell line (hematological)",610 nM
same,IC50,"MT-3, 72 h, MT3 cell line (breast)",900 nM
same,IC50,"NCI-H358M, NCIH358M cell line (lung)",1340 nM
same,IC50,"PBMC, PBMC (hematological)",4980 nM
same,IC50,"RD-ES, RDES cell line (bone)",1290 nM
